Here are results for 5 compounds from patent publication US10966426B2, “Herbicidal compositions comprising phenylpyrimidines” (BASF SE, priority 2016, dated 2021).

Like-named read-outs stand apart in the source and are kept apart here.

Holding throughout (assay type): in vivo
One assay has as its system Helianthus annuus. The experiment in a line: greenhouse pre-emergence treatment, HELAN. Conditions: Helianthus annuus, 480 h, 20 DAT, HELAN. A digest of the protocol: (§1)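 Pre-emergence spray of compounds, alone or as combinations formulated as 10% emulsion concentrate in water, directly after sowing in loamy sand (~3.0% humus); pots hooded until rooting, kept at 10-25° C or 20-35° C per species for 2 to 4 weeks. Damage scored 0-100 (100 = no emergence/complete destruction); Colby expected value E=X+Y−(X·Y/100).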

Another assay relates to Polygonum convolvulus. The experiment in a line: greenhouse pre-emergence treatment, POLCO. Conditions: Fallopia convolvulus, 480 h, 20 DAT, POLCO. A digest of the protocol: as §1
The next assay relates to Galium aparine. The experiment in a line: greenhouse pre-emergence treatment, GALAP. The following applies: Galium aparine, 480 h, 20 DAT, GALAP. A digest of the protocol: as §1
For another assay, the system named is Bromus sterilis. The experiment in a line: greenhouse pre-emergence treatment, BROST. Conditions: Bromus sterilis, 480 h, 20 DAT, BROST. A digest of the protocol: as §1
A further assay deals with Poa annua. Briefly: greenhouse pre-emergence treatment, POAAN. Conditions: 20 DAT. A digest of the protocol:
as §1

A further assay deals with Lolium multiflorum. The experiment in a line: greenhouse pre-emergence treatment, LOLMU. The following applies: Lolium multiflorum, 480 h, LOLMU, 20 DAT. A digest of the protocol: as §1
A further assay has as its system Stellaria media. The experiment in a line: greenhouse pre-emergence treatment, STEME. Conditions: 20 DAT. Put shortly: as §1
The subject of a further assay is Digitaria sanguinalis. The experiment in a line: greenhouse pre-emergence treatment, DIGSA. Conditions: Digitaria sanguinalis, 480 h, DIGSA, 20 DAT. A digest of the protocol: as §1
The next assay relates to Polygonum aviculare. The experiment in a line: greenhouse post-emergence treatment, POLAV. The following applies: Polygonum aviculare, 480 h, 20 DAT. As for the experimental part:
The culture containers used were plastic pots containing loamy sand with approximately 3.0% of humus as substrate. The seeds of the test plants were sown separately for each species.
For the post-emergence treatment, the test plants were grown to a plant height of from 3 to 15 cm, depending on the plant habit, and only then treated with the active compounds which had been suspended or emulsified in water. To this end, the test plants were either sown directly, and grown in the same containers, or they were first grown separately as seedlings and transplanted into the test containers a few days prior to treatment.
Depending on the species, the plants were kept at 10-25° C. and 20-35° C., respectively.
The test period extended over 2 to 4 weeks. During this time, the plants were tended and their response to the individual treatments was evaluated.
Evaluation was carried out using a scale from 0 to 100. 100 means no emergence of the plants, or complete destruction of at least the above-ground parts, and 0 means no damage or normal course of growth. A good herbicidal activity is given at values of at least 70, and very good herbicidal activity is given at values of at least 85.
The respective stated components A and B, and if appropriate, C were formulated as a 10% by weight strength emulsion concentrate and, with addition of the amount of solvent system, introduced into the spray liquor used for applying the active compound. In the examples, the solvent used was water.
In the examples below, using the method of S. R. Colby (1967) “Calculating synergistic and antagonistic responses of herbicide combinations”, Weeds 15, p. 22ff., the value E, which is expected if the activity of the individual active compounds is only additive, was calculated. E=X+Y−(X·Y/100) where X=effect in percent using herbicide A at an application rate a; • Y=effect in percent using herbicide B at application rate b; • E=expected effect (in %) of herbicide A+herbicide B at application rates a+b.

[1] abbreviates: 125 gai/ha (EC 750 g/l), Table X1, read-out: % activity, solo application.
The mark [2] stands for this setting: 62.5 gai/ha (EC 750 g/l), Table X1, read-out: % activity, solo application.
The mark [3] stands for this setting: 250 gai/ha (EC 750 g/l), Table X1, read-out: % activity, solo application.
[4] abbreviates: metribuzin WG 70% solo 125 gai/ha, read-out: % activity.
Where [5] appears, read: metribuzin WG 70% solo 250 gai/ha.
[6] abbreviates: metribuzin WG 70% solo 62.5 gai/ha, read-out: % activity.
[7] abbreviates: metribuzin WG 70% solo 250 gai/ha, read-out: % activity.

A word on the plant injury: it is the degree to which the test organism was suppressed or injured, in per cent. Usually pest or weed control stands for how far the test organism was held down.

Turning to `Cc1ccccc1CO[C@@H]1C[C@@]2(C(C)C)CC[C@]1(C)O2` (racemic) [cinmethylin], the values for the inhibition at 125 g/ha with Helianthus annuus (setting [1]) and in the assay with Polygonum convolvulus (setting [1]) were 10% and 0%, respectively. Also, in the assay on Polygonum convolvulus (31.25 gai/ha (EC 750 g/l), Table X1, read-out: % activity, solo application), the inhibition at 31.25 g/ha amounted to 0%. Further, the inhibition at 62.5 g/ha in the assay with Polygonum convolvulus (setting [2]) was determined as 0%; in the assay on Bromus sterilis (setting [2]), 55%. For the same compound, the inhibition at 250 g/ha with Polygonum convolvulus (setting [3]) stood at 0%; with Bromus sterilis (setting [3]) it was 75%. Moreover, the % herbicidal activity (weed control, 0-100 scale) at 62.5 g/ha with Galium aparine (setting [2]) is 0%. Further, in the assay on Galium aparine (setting [1]), the % herbicidal activity (weed control, 0-100 scale) at 125 g/ha is 20%.
Regarding `Cc1ccc(NC(=O)N(C)C)cc1Cl` [chlorotoluron], the “% activity” value in the assay with Poa annua (chlorotoluron solo 125 gai/ha) is 0%; with Poa annua (chlorotoluron solo 250 gai/ha) it was 20%; in the assay with Stellaria media (chlorotoluron solo 250 gai/ha), 65%. In addition, in the assay with Helianthus annuus (chlorotoluron solo 500 gai/ha), the plant injury at 500 g/ha was determined as 10%. The pest or weed control at 250 g/ha with Lolium multiflorum (chlorotoluron solo 250 gai/ha) and in the assay on Bromus sterilis (chlorotoluron solo 250 gai/ha) was 0% each time. Besides, the pest or weed control at 500 g/ha in the assay with Lolium multiflorum (chlorotoluron solo 500 gai/ha) turned out to be 10%; in the assay on Digitaria sanguinalis (chlorotoluron solo 500 gai/ha), 65%; in the assay on Bromus sterilis (chlorotoluron solo 500 gai/ha) it was 0%. Also, the pest or weed control at 125 g/ha in the assay with Digitaria sanguinalis (chlorotoluron solo 125 gai/ha) was determined as 0%. The pest or weed control at 62.5 g/ha with Bromus sterilis (chlorotoluron solo 62.5 gai/ha) was 0%.
As for `CC(C)N(C(=O)COc1nnc(C(F)(F)F)s1)c1ccc(F)cc1` [flufenacet], the inhibition at 62.5 g/ha was 0% in the assay on Polygonum convolvulus (sc, flufenacet SC 500 g/l solo 62.5 gai/ha, read-out: % activity); 0% with Stellaria media (Stellaria media, 480 h, flufenacet SC 500 g/l solo 62.5 gai/ha); 0% with Polygonum aviculare (flufenacet solo 62.5 gai/ha, read-out: % activity). Besides, the inhibition at 125 g/ha in the assay on Polygonum convolvulus (sc, flufenacet SC 500 g/l solo 125 gai/ha, read-out: % activity) was 0%; in the assay on Stellaria media (Stellaria media, 480 h, flufenacet SC 500 g/l solo 125 gai/ha) it was 0%; in the assay on Polygonum aviculare (flufenacet solo 125 gai/ha, read-out: % activity), 0%. In the assay on Galium aparine (flufenacet SC 500 g/l solo 15.6 gai/ha), the % herbicidal activity (weed control, 0-100 scale) at 15.6 g/ha was determined as 0%. In addition, in the assay on Galium aparine (flufenacet SC 500 g/l solo 31.25 gai/ha), the % herbicidal activity (weed control, 0-100 scale) at 31.25 g/ha stood at 0%. Also, the % herbicidal activity (weed control, 0-100 scale) at 62.5 g/ha with Galium aparine (flufenacet SC 500 g/l solo 62.5 gai/ha, read-out: % activity) came to 0%. Moreover, the % herbicidal activity (weed control, 0-100 scale) at 125 g/ha with Galium aparine (flufenacet SC 500 g/l solo 125 gai/ha, read-out: % activity) was found to be 40%. In addition, the inhibition at 15.6 g/ha with Stellaria media (Stellaria media, 480 h, flufenacet SC 500 g/l solo 15.6 gai/ha) is 0%. Besides, in the assay with Stellaria media (Stellaria media, 480 h, flufenacet SC 500 g/l solo 31.25 gai/ha), the inhibition at 31.25 g/ha was determined as 0%. Further, in the assay with Polygonum aviculare (flufenacet solo 250 gai/ha), the inhibition at 250 g/ha amounted to 0%. Moreover, in the assay on Polygonum aviculare (POLAV, solo flufenacet (SC 500 g/l) 250 gai/ha), the inhibition at 500000 µg/mL (stock) was found to be 0%.
On to `CSc1nnc(C(C)(C)C)c(=O)n1N` [metribuzin], for which the figures for the inhibition at 62.5 g/ha with Helianthus annuus (metribuzin WG 70% solo 62.5 gai/ha), with Polygonum convolvulus (setting [6]) and with Bromus sterilis (setting [6]) were 0%, 0% and 10%, respectively. Further, the inhibition at 125 g/ha with Helianthus annuus (setting [4]) and with Polygonum convolvulus (setting [4]) was 0% throughout. Moreover, the inhibition at 250 g/ha turned out to be 50% in the assay with Helianthus annuus (setting [5]), 0% in the assay with Polygonum convolvulus (setting [7]) and 60% in the assay with Bromus sterilis (setting [7]). Also, the plant injury at 31.25 g/ha in the assay on Helianthus annuus (solo, WG 70%, 31.25 gai/ha) stood at 0%. Moreover, in the assay with Helianthus annuus (solo, WG 70%, 62.5 gai/ha), the plant injury at 62.5 g/ha turned out to be 0%. In the assay with Helianthus annuus (solo, WG 70%, 250 gai/ha), the plant injury at 250 g/ha is 50%. The pest or weed control at 62.5 g/ha in the assay on Polygonum convolvulus (solo, WG 70%, 62.5 gai/ha) was found to be 0%; in the assay with Bromus sterilis (solo, WG 70%, 62.5 gai/ha), 10%. Besides, in the assay with Polygonum convolvulus (solo, WG 70%, 125 gai/ha), the pest or weed control at 125 g/ha turned out to be 0%. Further, in the assay on Galium aparine (setting [5]), the % herbicidal activity (weed control, 0-100 scale) at 250 g/ha was 0%. The pest or weed control at 250 g/ha with Galium aparine (solo, WG 70%, 250 gai/ha) came to 0%. The pest or weed control at 31.25 g/ha with Digitaria sanguinalis (solo, WG 70%, 31.25 gai/ha) was determined as 40%. Besides, in the assay on Bromus sterilis (metribuzin WG 70% solo 31.25 gai/ha), the inhibition at 31.25 g/ha came out at 0%.
Consider `CCCCCCCCSC(=O)Oc1cc(Cl)nnc1-c1ccccc1` [pyridate], for which, in the assay with Polygonum aviculare (pyridate solo 112.5 gai/ha, POLAV), the inhibition at 112.5 g/ha came to 0%. Further, the inhibition at 225 g/ha with Polygonum aviculare (pyridate solo 225 gai/ha, POLAV) was 20%. For the same compound, the inhibition at 450 g/ha in the assay on Polygonum aviculare (pyridate solo 450 gai/ha, POLAV) was 20%. Further, the inhibition at 900 g/ha in the assay with Polygonum aviculare (pyridate solo 900 gai/ha, POLAV) came to 30%.
